According to the NIST ThermoML archive (doi:10.1016/j.jct.2009.10.009):
“And” between values parts separate entries of the source, which are not always exact repeats. Identical values can stand only once.

Details: Crystal, Calculated from knudsen effusion weight loss

O=Cc1cccc(O)c1 [3-hydroxybenzaldehyde]
Details | vapor or sublimation pressure
312.17 K | 0.000139 kPa and 0.000134 kPa and 0.000131 kPa
314.2 K | 0.000177 kPa and 0.000171 kPa and 0.000168 kPa
316.2 K | 0.000233 kPa and 0.00022 kPa and 0.000216 kPa
318.19 K | 0.00028 kPa and 0.000275 kPa and 0.000288 kPa
320.18 K | 0.000377 kPa and 0.000358 kPa and 0.000353 kPa
322.2 K | 0.000462 kPa and 0.000453 kPa and 0.00044 kPa
324.17 K | 0.000581 kPa and 0.000557 kPa and 0.000542 kPa
326.22 K | 0.000738 kPa and 0.000712 kPa and 0.000694 kPa
328.18 K | 0.000907 kPa and 0.000871 kPa and 0.000849 kPa
330.19 K | 0.001139 kPa and 0.00109 kPa and 0.001058 kPa

O=Cc1ccc(O)cc1 [4-hydroxybenzaldehyde]
Details | vapor or sublimation pressure
324.2 K | 0.000157 kPa and 0.000151 kPa and 0.000149 kPa
326.16 K | 0.000197 kPa and 0.000193 kPa and 0.000187 kPa
328.31 K | 0.000252 kPa and 0.000244 kPa and 0.000242 kPa
330.18 K | 0.000303 kPa and 0.000296 kPa and 0.000308 kPa
332.16 K | 0.000382 kPa and 0.000375 kPa and 0.00037 kPa
334.18 K | 0.000477 kPa and 0.000472 kPa and 0.000463 kPa
336.22 K | 0.000603 kPa and 0.000602 kPa and 0.000583 kPa
338.34 K | 0.000756 kPa and 0.000738 kPa and 0.000728 kPa
340.17 K | 0.000926 kPa and 0.000905 kPa and 0.000886 kPa
341.3 K | 0.001019 kPa and 0.001005 kPa and 0.000984 kPa

CC(C)(C)c1cc(C=O)c(O)c(C(C)(C)C)c1 [3,5-di-tert-butyl-2-hydroxybenzaldehyde]
Details | vapor or sublimation pressure
296.28 K | 0.000151 kPa and 0.000143 kPa and 0.00014 kPa
298.16 K | 0.000193 kPa and 0.00018 kPa and 0.000176 kPa
300.17 K | 0.000248 kPa and 0.000237 kPa and 0.000234 kPa
302.18 K | 0.000304 kPa and 0.0003 kPa and 0.000322 kPa
304.15 K | 0.000408 kPa and 0.000382 kPa and 0.000378 kPa
306.37 K | 0.000542 kPa and 0.000514 kPa and 0.000505 kPa
308.18 K | 0.000673 kPa and 0.000631 kPa and 0.00062 kPa
310.17 K | 0.000861 kPa and 0.000812 kPa and 0.000801 kPa
312.2 K | 0.001099 kPa and 0.001032 kPa and 0.001014 kPa
